Laboratory results reported in ChEMBL document CHEMBL3627603, “Helical peptide-polyamine and -polyether conjugates as synthetic ionophores” (Bioorg Med Chem, 2015).
Values after ≈ are worked out from the molar mass of the structure shown. Active and inactive are the calls of the source. No cut-off for these calls is given here. Starred links: 1 amine or outer side, 2 acyl side, 3 side chain; linkers in the order of their positions; H or OH if unused. Non-standard residues stand in square brackets, D forms with d. Residues, ends and D or L forms follow the SMILES beside them. *: point of attachment. HN(CH2CH2O)5CH2CH2NH = C(COCCOCCOCCOCCOCCN[*:2])N[*:1]; X1 = O=C(c1ccc(OP(=O)(O)O)cc1)*; Spermine = NCCCNCCCCNCCCN*; Aib = CC(C)(N)C(=O)O

Columns and labels:
[1] = (§1) Ionophoric activity across large unilamellar vesicles containing 95:5 egg yolk phosphatidylcholine and phosphatidylglycerol assessed as apparent first order rate constant for H+ transport at 3% of total concentration of lipids at 25 degC measured after 20 mins by HPTS-based fluorescence assay (reference value: 2 x 10^-4/s); assay type: ADME
Escherichia coli [2] = experiment: Antibacterial activity against Escherichia coli ATCC 25922 after 24 hrs by broth microdilution method; assay type: functional; details: ATCC 25922, 24 h
[3] = as §1, with “1.5%” for “3%”; assay type: ADME
Candida albicans = experiment: Antifungal activity against Candida albicans clinical isolate after 48 hrs by broth microdilution method; assay type: functional
[4] = as §1, with “0.5%” for “3%”; assay type: ADME
[5] = as §1, with “2%” for “3%”; assay type: ADME
Escherichia coli [6] = experiment: Induction of inner membrane permeabilization of Escherichia coli ML-35 pYC constitutively expressing cytoplasmic beta-galactosidase/periplasmic beta-lastamase assessed as Gal-ONp hydrolysis at 64 uM by microplate reader analysis; assay type: functional, organism-based
Escherichia coli [7] = experiment: Induction of outer membrane permeabilization of Escherichia coli ML-35 pYC constitutively expressing cytoplasmic beta-galactosidase/periplasmic beta-lastamase assessed as CENTA hydrolysis at 64 uM by microplate reader analysis; assay type: functional, organism-based
[8] = as §1, with “1%” for “3%”; assay type: ADME
Staphylococcus aureus [9] = experiment: Antibacterial activity against Staphylococcus aureus 34 clinical isolate after 24 hrs by broth microdilution method; assay type: functional; details: Staphylococcus aureus, 34, 24 h
[10] = Ionophoric activity across large unilamellar vesicles containing 95:5 egg yolk phosphatidylcholine and phosphatidylglycerol assessed as apparent first order rate constant for Na+ transport at 1% of total concentration of lipids at 25 degC measured every 30 mins over 14 hrs by 23Na+ NMR analysis; assay type: ADME
[11] = as §1, with “2.5%” for “3%”; assay type: ADME
[12] = Induction of lysis of large unilamellar vesicles containing 95:5 egg yolk phosphatidylcholine and phosphatidylglycerol assessed as calcein release at 0.22 mM treated at 400 to 1600 secs by fluorometric analysis; assay type: functional
Pseudomonas aeruginosa = experiment: Antibacterial activity against Pseudomonas aeruginosa ATCC 27853 after 24 hrs by broth microdilution method; assay type: functional; details: ATCC 27853, 24 h
Cryptococcus neoformans = experiment: Antifungal activity against Cryptococcus neoformans clinical isolate after 48 hrs by broth microdilution method; assay type: functional
Staphylococcus aureus [13] = experiment: Antibacterial activity against methicillin-resistant Staphylococcus aureus 16 clinical isolate after 24 hrs by broth microdilution method; assay type: functional; details: Staphylococcus aureus, 16, 24 h
Escherichia coli [14] = experiment: Induction of outer membrane permeabilization of Escherichia coli ML-35 pYC constitutively expressing cytoplasmic beta-galactosidase/periplasmic beta-lastamase assessed as CENTA hydrolysis at 256 uM by microplate reader analysis; assay type: functional, organism-based
[15] = Ionophoric activity across large unilamellar vesicles containing 95:5 egg yolk phosphatidylcholine and phosphatidylglycerol assessed as apparent first order rate constant for Na+ transport at 0.5% of total concentration of lipids at 25 degC measured every 30 mins over 14 hrs by 23Na+ NMR analysis; assay type: ADME
[16] = Ionophoric activity across large unilamellar vesicles containing 95:5 egg yolk phosphatidylcholine and phosphatidylglycerol assessed as apparent first order rate constant for Na+ transport at 0.2% of total concentration of lipids at 25 degC measured every 30 mins over 14 hrs by 23Na+ NMR analysis; assay type: ADME
[17] = Ionophoric activity across large unilamellar vesicles containing 95:5 egg yolk phosphatidylcholine and phosphatidylglycerol assessed as apparent first order rate constant for Na+ transport at 3% of total concentration of lipids at 25 degC measured every 30 mins over 14 hrs by 23Na+ NMR analysis; assay type: ADME
[18] = Ionophoric activity across large unilamellar vesicles containing 95:5 egg yolk phosphatidylcholine and phosphatidylglycerol assessed as apparent first order rate constant for Na+ transport at 1.5% of total concentration of lipids at 25 degC measured every 30 mins over 14 hrs by 23Na+ NMR analysis; assay type: ADME
Escherichia coli [19] = experiment: Induction of inner membrane permeabilization of Escherichia coli ML-35 pYC constitutively expressing cytoplasmic beta-galactosidase/periplasmic beta-lastamase assessed as Gal-ONp hydrolysis at 256 uM by microplate reader analysis; assay type: functional, organism-based
[20] = Ionophoric activity across large unilamellar vesicles containing 95:5 egg yolk phosphatidylcholine and phosphatidylglycerol assessed as apparent first order rate constant for Na+ transport at 2% of total concentration of lipids at 25 degC measured every 30 mins over 14 hrs by 23Na+ NMR analysis; assay type: ADME

Row | Compound | MIC (Escherichia coli [2]) [µM] | Kapp [3] [×10⁻² /s] | MIC (Candida albicans) [µM] | Kapp [4] [×10⁻³ /s] | Kapp [5] [×10⁻² /s] | Kapp [8] [×10⁻³ /s] | MIC (Staphylococcus aureus [9]) [µM] | Activity [10] | Kapp [11] [×10⁻² /s] | Activity [12] | MIC (Pseudomonas aeruginosa) [µM] | MIC (Cryptococcus neoformans) [µM] | MIC (Staphylococcus aureus [13]) [µM] | further results
1 | CC(C)(NC(=O)c1ccc(OP(=O)(O)O)cc1)C(=O)NC(C)(C)C(=O)NC(C)(C)C(=O)NC(C)(C)C(=O)NC(C)(C)C(=O)NC(C)(C)C(=O)NC(C)(C)C(=O)NC(C)(C)C(=O)NCCCNCCCCNCCCN (X1-[Aib][Aib][Aib][Aib][Aib][Aib][Aib][Aib]-Spermine) | 32 (≈ 34.7 µg/mL) | 1.73 | 32 (≈ 34.7 µg/mL) | 4.08 | 1.98 | 5.24 | 16 (≈ 17.3 µg/mL) | Not Active | 3.62 | inactive | 64 (≈ 69.3 µg/mL) | 16 (≈ 17.3 µg/mL) | 32 (≈ 34.7 µg/mL) | Kapp [1]: 6.77 ×10⁻² /s; Activity (Escherichia coli [6]): Active; Activity (Escherichia coli [7]): Active
2 | CC(C)(NC(=O)c1ccc(OP(=O)(O)O)cc1)C(=O)NC(C)(C)C(=O)NC(C)(C)C(=O)NC(C)(C)C(=O)NC(C)(C)C(=O)NC(C)(C)C(=O)NC(C)(C)C(=O)NC(C)(C)C(=O)NCCOCCOCCOCCOCCOCCN (X1-[Aib][Aib][Aib][Aib][Aib][Aib][Aib][Aib]-{HN(CH2CH2O)5CH2CH2NH}) | > 128 | 1.78 | > 128 | 4.96 | 2.59 | 7.71 | > 128 | – | 4.89 | inactive | > 128 | > 128 | > 128 | Activity (Escherichia coli [14]): inactive; Kapp [15]: 0.0037 min⁻¹; Kapp [16]: 0.0017 min⁻¹; Kapp [17]: 0.015 min⁻¹; Kapp [10]: 0.0063 min⁻¹; Kapp [18]: 0.0078 min⁻¹; Activity (Escherichia coli [19]): inactive; Kapp [20]: 0.0102 min⁻¹
3 | C[C@@H]1[C@H](O)[C@@H](C)/C=C/C=C/C=C/C=C/C=C/C=C/C=C/[C@H](O[C@@H]2O[C@H](C)[C@@H](O)[C@H](N)[C@@H]2O)C[C@@H]2O[C@](O)(C[C@@H](O)C[C@@H](O)[C@H](O)CC[C@@H](O)C[C@@H](O)CC(=O)O[C@H]1C)C[C@H](O)[C@H]2C(=O)O [AMPHOTERICIN B] | – | – | – | – | – | – | – | Active | – | – | – | – | – | Activity [8]: Active
4 | CC(C)[C@@H](CC[C@@H](C)[C@H]1CC[C@H]2[C@@H]3[C@H](O)C[C@H]4C[C@@H](NCCCNCCCCN)CC[C@]4(C)[C@H]3CC[C@]12C)OS(=O)(=O)O [SQUALAMINE] | 1 (≈ 0.628 µg/mL) | – | 4 (≈ 2.51 µg/mL) | – | – | – | 1 (≈ 0.628 µg/mL) | – | – | – | 4 (≈ 2.51 µg/mL) | – | – | –
